Assay results from ChEMBL document CHEMBL1132956 (J Med Chem, 2000).
pIC50: −log10 of the molar value.

Assays:
[1] = species on record: Homo sapiens; experiment: tissue or blood
Description: Analysis of TXB2 as a function of COX-1 activity in heparinized human whole blood.

[2] = species on record: Homo sapiens; experiment: tissue or blood; remark: listed apart in the source
Description: In vitro assay for PGE-2 production as a function of COX-2 inhibition in whole human blood cultured with lipopolysaccharide (LPS)

[3] = biological target: Prostaglandin G/H synthase 1 (Homo sapiens, UniProt P23219)
Prostaglandin G/H synthase 1, sequence (P23219 whole entry): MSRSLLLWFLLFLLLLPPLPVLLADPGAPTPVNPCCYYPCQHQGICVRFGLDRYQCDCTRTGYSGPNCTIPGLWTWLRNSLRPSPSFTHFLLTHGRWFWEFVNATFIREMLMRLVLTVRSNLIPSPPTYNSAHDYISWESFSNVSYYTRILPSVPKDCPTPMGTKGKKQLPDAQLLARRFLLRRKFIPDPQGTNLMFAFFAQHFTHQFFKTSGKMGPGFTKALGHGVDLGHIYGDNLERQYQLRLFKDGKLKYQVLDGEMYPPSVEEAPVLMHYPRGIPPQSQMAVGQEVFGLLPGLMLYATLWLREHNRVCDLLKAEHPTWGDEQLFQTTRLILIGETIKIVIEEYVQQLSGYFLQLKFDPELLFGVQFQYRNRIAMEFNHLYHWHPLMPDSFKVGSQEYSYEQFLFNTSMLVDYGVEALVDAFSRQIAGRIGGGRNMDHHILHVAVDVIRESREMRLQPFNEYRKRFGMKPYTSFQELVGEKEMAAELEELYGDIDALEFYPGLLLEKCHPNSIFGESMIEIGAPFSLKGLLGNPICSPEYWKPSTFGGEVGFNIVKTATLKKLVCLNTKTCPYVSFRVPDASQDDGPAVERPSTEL
Description: In Vitro activity of compound against human recombinant Prostaglandin G/H synthase 1

SMILES	pIC50 [1]	pIC50 [2]	pIC50 [3]
Cc1ccc(-c2cc(C(F)(F)F)nn2-c2ccc(S(N)(=O)=O)cc2)cc1 [CELECOXIB]	5.18	6.79	
Cc1onc(-c2ccccc2)c1-c1ccc(S(N)(=O)=O)cc1 [VALDECOXIB]	4.60	6.05	
NS(=O)(=O)c1ccc(-c2c(-c3ccccc3)noc2CO)cc1 [HYDROXYLATED DERIVATIVE]	< 4.30	6.48	2.95
